Assay results taken from patent US7375088B2, “Polyene polyketides, processes for their production and their use as a pharmaceutical” (Thallion Pharmaceuticals Inc., priority 2003, dated 2008).
Converted amounts (≈) assume the structure as drawn.

How the values were obtained:
[1] = system: Aspergillus flavus ATCC 204304; assay: MIC broth microdilution assay
Protocol: (§1) Test compound preparation: The test article was prepared as 100× stock solutions in DMSO, with concentrations ranging from 3.2 mg/ml to 0.0625 mg/ml (a two-fold dilution series over 10 points). The first dilution (3.2 mg/ml) was prepared by resuspending 0.5 mg of each test article in 156.25 μl of DMSO. The stock is then serially diluted by two-fold increments to obtain the desired concentration range.
(§2) Inoculum preparation: For fungal strains, the inoculum was prepared as follows. From an overnight culture in Yeast Media broth, cell density was adjusted in 0.85% saline to 0.5 McFarland. This procedure yielded a stock suspension of about 5×10^6 cells/ml. Following thorough vortexing, a working suspension was prepared by diluting the stock 1:50 in RPMI 1640, and then further diluting it 1:20 with RPMI 1640 to obtain the 2× test inoculum (about 5×10^3 cells/ml). For filamentous fungi, the inoculum was prepared as follows. […]
(§3) 50 μl of the final cell dilution (yeast, filamentous fungi or bacteria) of each indicator strain was added to each corresponding well of the microplate containing 50 μl of diluted drug or media alone. […] MIC readings were determined at 24 and 48 hrs for the Candida and Aspergillus species, and at 48 and 72 hrs for Cryptococcus neoformans. MIC readout for each indicator was determined as the lowest concentration of test compound resulting in total absence of growth.

[2] = system: Saccharomyces cerevisiae ATCC 9763; assay: MIC broth microdilution assay
Protocol: as §1, §2, §3

[3] = system: C. albicans SC5314; assay: Mouse model of disseminated candidiasis (survival); format: in vivo; settings: for Median survival: CD-1 mice infected i.v. with C. albicans SC5314, observed 21 days
Protocol: Compound 2(a) was provided as a dry powder with an estimated purity of 95+%. Fungizone (amphotericin B desoxycholate, to be used as a comparitor), was also provided as a dry powder with an estimated purity of 95+%. The compound 2(a) and Fungizone were stored as dry powders at −80° C. until the day of administration.
Female mice (species Mus musculus, strain CD-1, Charles River) with body weight range of 22-24 g were used in the study. […] All animal experiments were performed at the Ste-Justine Hospital (Montreal, Quebec) according to ethical guidelines of animal experimentation of the ethical committee of the hospital. During the study, dead or apparently sick animals were promptly removed and sick mice were euthanized upon removal from the cage.
The animals were maintained in rooms under controlled conditions of temperature (23±2° C.), humidity (45±5%), photoperiodicity (12 hrs light/12 hrs dark) and air exchange. The animals were housed in polycarbonate cages (4/single cage) equipped to provide food and water. Sterile wood shavings were used for animal bedding and the bedding was replaced every other day. Food (Harlam Tecklab, Canada) and autoclaved tap water was provided ab libitum, the food being placed in the metal lid on top of the cage. Water bottles were equipped with rubber stoppers and sipper tubes and were cleaned, sterilized and replaced once a week.
Six groups of mice (10 mice per group) were infected intravenously with 3×10^6 CFU of C. albicans SC5314 as previously described (see Dubois, N., et al., Microbiology 1998, 144: 2299-2310). Twenty-four hours after infection, each individual group of mice was treated with Compound 2(a) (1 or 3 mg/kg i.p.), Fungizone (0.25, 0.5 or 1 mg/kg i.p.) as comparitor, or sham-treated with sterile water containing 5% dextrose and 3% DMSO. Each animal received 100 μl of test solution.
The treatment regimen was repeated once daily for a total of 4 days. The mice were observed twice daily for signs of morbidity over 21 days. Moribund animals were scored as non-survivors and euthanized by CO2 inhalation. […]

[4] = system: Aspergillus flavus; assay: Disk diffusion assay (MEC and zone of inhibition); format: cell-based
[5] = system: Aspergillus fumigatus; assay: Disk diffusion assay (MEC and zone of inhibition); format: cell-based
[6] = system: Candida lusitaniae ATCC 200953; assay: MIC broth microdilution assay; settings: Clavispora lusitaniae
Protocol: as §1, §2, §3

[7] = system: Candida krusei LSPQ 0309; assay: MIC broth microdilution assay; settings: Pichia kudriavzevii
Protocol: as §1, §2, §3

[8] = at the MEC, 24 hours of incubation
[9] = disk diffusion, 24 hours of incubation

CC(C=CCCC=CC=CC=CC=CC(=O)NC1=C(O)CCC1=O)C(O)C(C)C(O)C=CC=CC=CC=CC=CCC(OC1OC(C)C(O)C(O)C1O)C(C)C(=O)CC(O)CC(O)CC(O)C=CCC(O)CC(O)CC(O)CC(O)C=CCC(O)CC(O)CCCN (centres unmarked) [Compound 2(a), 56-Amino-15,17,33,35,37,41,43,45,47,51,53-undecahydroxy-14,16,30-trimethyl-31-oxo-29-(3,4,5-trihydroxy-6-methyl-tetrahydro-pyran-2-yloxy)-hexapentaconta-2,4,6,8,12,18,20,22,24,26,38,48-dodecaenoic acid (2-hydroxy-5-oxo-cyclopent-1-enyl)-amide]
MIC ([1]; ATCC204304, 24 h): 4 µg/mL (≈ 3.08 µM) | MIC ([1]; ATCC204304, 48 h): 8 µg/mL (≈ 6.17 µM) | MIC ([2]; ATCC9763, 24 h): 4 µg/mL (≈ 3.08 µM) | MIC ([2]; ATCC9763, 48 h): 4 µg/mL (≈ 3.08 µM) | Median survival ([3]; 1.0 mg/kg i.p. once daily for 4 days): 8.5 days | Median survival ([3]; 3.0 mg/kg i.p. once daily for 4 days): 20 days | increase of the median survival time of infected mice ([3]; versus vehicle (median survival 5 days)): 4 fold | antifungal activity in disk diffusion assay [4]: active | ZOI (zone of inhibition of fungal growth calculated for each MEC) [4, 8]: 2.7 mm | MEC (minimum effective concentration) [4, 9]: 2.5 µg/mL | antifungal activity in disk diffusion assay [5]: active | ZOI (zone of inhibition of fungal growth calculated for each MEC) [5, 8]: 2.7 mm | MEC (minimum effective concentration) [5, 9]: 2.5 µg/mL | MIC ([6]; ATCC200953, 24 h): 4 µg/mL (≈ 3.08 µM) | MIC ([6]; ATCC200953, 48 h): 4 µg/mL (≈ 3.08 µM) | MIC ([7]; LSPQ0309, 24 h): 8 µg/mL (≈ 6.17 µM) | MIC ([7]; LSPQ0309, 48 h): 8 µg/mL (≈ 6.17 µM)
